Results: patent publication US6348445B1, “Biologically active peptides with reduced toxicity in animals and a method for preparing same” (priority 1992, dated 2002)
Where a SMILES comes first, the peptide text is derived from it. [ ]: non-standard residue; d: D form. The star is where a group is joined. Octanoyl = CCCCCCCC(=O)*; Orn = NCCC[C@H](N)C(=O)O

Columns and labels:
Format in all cases: cell-based
C. albicans = system: C. albicans
Excerpt: (§1) Table I, which follows, indicates the Minimal Inhibitory Concentration (MIC) in […] of various peptides against S.aureus strain ATCC 25923(S), P. aeruginosa strain ATCC 27853(P), E. coli ATCC strain 25922(E), and C. 4albicans (CA). […] The peptides are unsubstituted at the N-terminal; substituted with an acetyl group at the N-terminal, as indicated by Ac-; substituted with an octanoyl group at the N-terminal, as indicated by Oct-; substituted with spinogosine, as indicated by Sph-; substituted with a succinyl group, as indicated by Suc-; substituted with a hexanoyl group, as indicated by Hex-; substituted with a heptanoyl group, as indicated by Hep-; substituted with a valeryl group, as indicated by Val-; substituted with a myristryl group, as indicated by Myr-; or substituted with an ibuprofyl group, as indicated by Ibu-;
(§2) The procedure for the anti-bacterial assay is based upon the guidelines of the National Committee for Clinical Laboratory Standards, Document M7-T2, Volume 8, No. 8, 1988, which document is entirely incorporated herein by reference.
(§3) Stock solutions of peptides, with and without the appropriate substitutions, were prepared at a concentration of 512 μg/ml in sterile deionized distilled water and stored at −70° C.
(§4) The stock peptide solution was diluted in serial dilutions (1:2) down the wells of a microtiter plate so that the final concentrations of peptides in the wells were 0.25, 0.50, 1, 2, 4, 8, 16, 32, 64, 128 and 256 μg/ml. 1-5×10^5 CFUs/ml of either S. aureus ATCC 25923, E. coli ATCC 25922, P. aeruginosa ATCC 27853, or C. albicans, were added to the wells in full strength Mueller Hinton broth (BBL 11443) from a mid-log culture. The inoculum was standardized spectrophotometrically at 600 nm and was verified by colony counts. The plates were incubated for 16-20 hours at 37° C., and the minimal inhibitory concentration (MIC) for each peptide was determined. Minimal inhibitory concentration is defined as the lowest concentration of peptide which produces a clear well in the microtiter plate. The minimal inhibitory concentration of each of the peptides with and/or without the appropriate substitutions is given in Table I below.

[1] = system: E. coli ATCC strain 25922; experiment: Minimal Inhibitory Concentration, microtiter broth dilution; conditions: ATCC strain 25922
Excerpt: as §1, §2, §3, §4
(§5) The in vitro anti-microbial activities of the methane sulfonate derivatives were determined according to the methods described in Examples 1 and 2. The activities against ATCC strains of S. aureus, E. coli, P. aeruginosa, and C. albicans, and the hemolysis of red blood cells were compared to the parent compound (Table IV). The activities for Compound 843 (Oct-SEQ ID NO:143) methane sulfonate against clinical strains of P. aeruginosa isolated from cystic fibrosis patients were compared to the parent compound (Table V). The activity for Compound 469 (Oct-SEQ ID NO:27) methane sulfonate against P. gingivalis was compared to the parent compound (Table VI).

[2] = system: P. aeruginosa strain ATCC 27853; conditions: ATCC 27853
Excerpt: as §1, §2, §3, §4, §5

Compound	Minimal Inhibitory Concentration CA (C. albicans) [µg/mL]	Minimal Inhibitory Concentration E [1] [µg/mL]	Minimal Inhibitory Concentration P [2] [µg/mL]
CCCCCCCC(=O)N[C@@H](CCCCN)C(=O)N[C@@H](CCCCN)C(=O)N[C@@H](Cc1ccccc1)C(=O)NCC(=O)N[C@@H](CCCCN)C(=O)N[C@@H](CCCCN)C(=O)N[C@@H](Cc1ccccc1)C(=O)N[C@H](C(=O)N[C@@H](CCCCN)C(=O)N[C@H](C(=O)N[C@@H](CC(C)C)C(=O)N[C@@H](CCCCN)C(=O)N[C@@H](CCCCN)C(N)=O)[C@@H](C)CC)C(C)C [Oct-(SEQ ID NO: 135)-NH2] (Octanoyl-KKFGKKFVKILKK-NH2)	64	64	8
CCCCCCCC(=O)N[C@@H](CC(C)C)C(=O)N[C@@H](CCCCN)C(=O)N[C@@H](CCCCN)C(=O)N[C@@H](CC(C)C)C(=O)N[C@@H](CC(C)C)C(=O)N[C@@H](CCCCN)C(=O)N[C@@H](CCCCN)C(N)=O [Oct-(SEQ ID NO: 137)-NH2] (Octanoyl-LKKLLKK-NH2)	256	>256	256
CCCCCCCC(=O)N[C@@H](CC(C)C)C(=O)N[C@@H](CCCCN)C(=O)N[C@@H](CCCCN)C(=O)N[C@@H](CC(C)C)C(=O)N[C@@H](CC(C)C)C(=O)N[C@@H](CCCCN)C(=O)N[C@@H](CC(C)C)C(=O)N[C@@H](CC(C)C)C(=O)N[C@@H](CCCCN)C(N)=O [Oct-(SEQ ID NO: 138)-NH2] (Octanoyl-LKKLLKLLK-NH2)	64	8	8
CCCCCCCC(=O)N[C@@H](CCCCN)C(=O)N[C@@H](CCCCN)C(=O)N[C@@H](CC(C)C)C(=O)N[C@@H](CC(C)C)C(=O)N[C@@H](CCCCN)C(=O)N[C@@H](CCCCN)C(=O)N[C@@H](CC(C)C)C(=O)N[C@@H](CCCCN)C(=O)N[C@@H](CCCCN)C(=O)N[C@@H](CC(C)C)C(=O)N[C@@H](CC(C)C)C(=O)N[C@@H](CCCCN)C(=O)N[C@@H](CCCCN)C(=O)N[C@@H](CC(C)C)C(N)=O [Oct-(SEQ ID NO: 139)-NH2] (Octanoyl-KKLLKKLKKLLKKL-NH2)	128	16	32
CCCCCCCC(=O)N[C@@H](CC(C)C)C(=O)N[C@@H](CCCN)C(=O)N[C@@H](CCCCN)C(=O)N[C@@H](CC(C)C)C(=O)N[C@@H](CC(C)C)C(=O)N[C@@H](CCCCN)C(=O)N[C@@H](CCCCN)C(=O)N[C@@H](CC(C)C)C(=O)N[C@@H](CCCCN)C(=O)N[C@@H](CCCCN)C(=O)N[C@@H](CC(C)C)C(N)=O [Oct-(SEQ ID NO: 141)-NH2] (Octanoyl-L[Orn]KLLKKLKKL-NH2)	32	8	4
CCCCCCCC(=O)N[C@@H](CC(C)C)C(=O)N[C@@H](CCCN)C(=O)N[C@@H](CCCN)C(=O)N[C@@H](CC(C)C)C(=O)N[C@@H](CC(C)C)C(=O)N[C@@H](CCCN)C(=O)N[C@@H](CCCN)C(=O)N[C@@H](CC(C)C)C(=O)N[C@@H](CCCN)C(=O)N[C@@H](CCCN)C(=O)N[C@@H](CC(C)C)C(N)=O [Oct-(SEQ ID NO: 142)-NH2] (Octanoyl-L[Orn][Orn]LL[Orn][Orn]L[Orn][Orn]L-NH2)	32	8	2
CCCCCCCC(=O)N[C@@H](CCCN)C(=O)N[C@@H](CCCN)C(=O)N[C@@H](CC(C)C)C(=O)N[C@@H](CC(C)C)C(=O)N[C@@H](CCCN)C(=O)N[C@@H](CCC(N)=O)C(=O)N[C@@H](CC(C)C)C(=O)N[C@@H](CCCN)C(=O)N[C@@H](CCCN)C(=O)N[C@@H](CC(C)C)C(N)=O [Oct-(SEQ ID NO: 144)-NH2] (Octanoyl-[Orn][Orn]LL[Orn]QL[Orn][Orn]L-NH2)	32	16	4
CCCCCCCC(=O)N[C@@H](CCCNC(=N)N)C(=O)N[C@@H](CC(C)C)C(=O)N[C@@H](CC(C)C)C(=O)N[C@@H](CCCNC(=N)N)C(=O)N[C@@H](CCCNC(=N)N)C(=O)N[C@@H](CC(C)C)C(=O)N[C@@H](CCCNC(=N)N)C(=O)N[C@@H](CCCNC(=N)N)C(=O)N[C@@H](CC(C)C)C(N)=O [Oct-(SEQ ID NO: 145)-NH2] (Octanoyl-RLLRRLRRL-NH2)	64	16	8
CCCCCCCC(=O)N[C@H](C(=O)N[C@@H](CCCCN)C(=O)N[C@@H](CCCCN)C(=O)N[C@@H](CC(C)C)C(=O)N[C@@H](CC(C)C)C(=O)N[C@@H](CCCCN)C(=O)N[C@@H](CCCCN)C(=O)N[C@@H](CC(C)C)C(=O)N[C@@H](CCCCN)C(=O)N[C@@H](CCCCN)C(=O)N[C@@H](CC(C)C)C(N)=O)C(C)C [Oct-(SEQ ID NO: 146)-NH2] (Octanoyl-VKKLLKKLKKL-NH2)	32	16	4
CCCCCCCC(=O)N[C@@H](CCCCN)C(=O)N[C@@H](CCCCN)C(=O)N[C@@H](CC(C)C)C(=O)N[C@@H](CC(C)C)C(=O)N[C@@H](CCCCN)C(=O)N[C@@H](CCCCN)C(=O)N[C@@H](CC(C)C)C(=O)N[C@@H](CCCCN)C(=O)N[C@@H](CCCCN)C(=O)N[C@@H](CC(C)C)C(=O)N[C@@H](CC(C)C)C(=O)N[C@@H](CCCCN)C(=O)N[C@@H](CCCCN)C(=O)N[C@@H](CC(C)C)C(N)=O [Oct-(SEQ ID NO: 147)-NH2] (Octanoyl-KKLLKKLKKLLKKL-NH2)	128	32	32
CCCCCCCC(=O)N[C@@H](CCCCN)C(=O)N[C@@H](CC(C)C)C(=O)N[C@@H](CCCCN)C(=O)N[C@@H](CCCCN)C(=O)N[C@@H](CC(C)C)C(=O)N[C@@H](CCCCN)C(=O)N[C@@H](CCCCN)C(=O)N[C@@H](CC(C)C)C(=O)N[C@@H](Cc1ccccc1)C(=O)N[C@@H](CCCCN)C(N)=O [Oct-(SEQ ID NO: 148)-NH2] (Octanoyl-KLKKLKKLFK-NH2)	128	32	8
CCCCCCCC(=O)NCC(=O)N[C@H](C(=O)N[C@@H](CCCCN)C(=O)N[C@@H](CCCCN)C(=O)N[C@@H](Cc1ccccc1)C(=O)N[C@@H](CC(C)C)C(=O)N[C@@H](CCCCN)C(=O)N[C@@H](CCCCN)C(=O)N[C@@H](C)C(=O)NCC(=O)N[C@@H](CCCCN)C(=O)N[C@@H](Cc1ccccc1)C(=O)NCC(=O)N[C@@H](CCCCN)C(=O)N[C@@H](C)C(=O)N[C@@H](Cc1ccccc1)C(N)=O)[C@@H](C)CC [Oct-(SEQ ID NO: 149)-NH2] (Octanoyl-GIKKFLKKAGKFGKAF-NH2)	126	32	16
CCCCCCCC(=O)N[C@H](CC(C)C)C(=O)N[C@H](CCCCN)C(=O)N[C@H](CCCCN)C(=O)N[C@H](CC(C)C)C(=O)N[C@H](CC(C)C)C(=O)N[C@H](CCCCN)C(=O)N[C@H](CCCCN)C(=O)N[C@H](CC(C)C)C(=O)N[C@H](CCCCN)C(=O)N[C@H](CCCCN)C(=O)N[C@H](CC(C)C)C(N)=O [Oct-D-(SEQ ID NO: 110)-NH2] (Octanoyl-[dL][dK][dK][dL][dL][dK][dK][dL][dK][dK][dL]-NH2)	32	16	4
